“Also recorded” adds a separate entry of the source.
What was measured:
[1] = test system: MDA-MB-435S; experiment: MDA-MB-435S nude mouse xenograft model; type: in vivo; details: 300 mg/kg IP, 5 times per week for 3 weeks, nude mice; FIG. 4
Procedure: FBS was obtained from Sigma-Aldrich Corp. (St. Louis, Mo., USA), and all other reagents were obtained from Invitrogen Corp. (Carlsbad, Calif., USA). Approximately 4-5×10(6) cells that had been cryopreserved in liquid nitrogen were rapidly thawed at 37° C. and transferred to a 175 cm^2 tissue culture flask containing 50 ml of growth media and then incubated at 37° C. in a 5% CO2 incubator. The growth media was replaced every 2-3 days until the flask became 90% confluent, typically in 5-7 days. To passage and expand the cell line, a 90% confluent flask was washed with 10 ml of room temperature phosphate buffered saline (PBS) and the cells were disassociated by adding 5 ml 1× Trypsin-EDTA (Invitrogen) and incubating at 37° C. until the cells detached from the surface of the flask. To inactivate the trypsin, 5 ml of growth media was added and then the contents of the flask were centrifuged to pellet the cells. The supernatant was aspirated and the cell pellet was resuspended in 10 ml of growth media and the cell number determined using a hemocytometer. […]
Six to eight week old, female Crl:CD-1-nuBR (nude) mice were obtained from Charles River Laboratories (Wilmington, Mass., USA). […] Tumor volumes (V) were calculated by caliper measurement of the width (W), length (L) and thickness (T) of tumors using the following formula: V=[…]×(L×W×T). […]

[2] = test system: Her2; experiment: IC50 range for inhibition of Her2 degradation (Table 8); type: cell-based; details: Homo sapiens
Procedure: Human high-Her2 breast carcinoma BT474 (HTB-20), SK-BR-3 (HTB-30) and MCF-7 breast carcinoma (HTB-22) from American Type Culture Collection, VA, USA were grown in Dulbecco's modified Eagle's medium with 4 mM L-glutamine and antibiotics (100 IU/ml penicillin and 100 ug/ml streptomycine; GibcoBRL). To obtain exponential cell growth, cells were trypsinized, counted and seeded at a cell density of 0.5×10^6 cells/ml regularly, every 3 days. All experiments were performed on day 1 after cell passage. […]
After treatment with a compound of the invention, cells were washed twice with 1×PBS/1% FBS, and then stained with anti-Her2-FITC (#340553, BD) for 30 min at 4° C. Cells were then washed three times in FACS buffer before the fixation in 0.5 ml 1% paraformadehydrede. Data was acquired on a FACSCalibur system. Isotype-matched controls were used to establish the non-specific staining of samples and to set the fluorescent markers. A total 10,000 events were recorded from each sample. Data were analysed by using CellQuest software (BD Biosciences).

`CCc1cc(-c2nnc(S)n2-c2cccc3ccccc23)c(O)cc1O` [Compound 49, 3-(2,4-Dihydroxy-5-ethyl-phenyl)-4-(naphthalen-1-yl)-5-mercapto-triazole] was tested, and the “toxicity (effect on body weights)” value [1] was “not associated with significant toxicity; also recorded: not toxic” and the IC50 [2] was < 3000 nM.

Reference: patent US20080004276A1, “Method for treating non-hodgkin's lymphoma” (priority 2006, published 2008)
